Laboratory results published in patent US20190320654A1, “VOLATILE ORGANIC COMPOUNDS FOR INHIBITING FUNGAL GROWTH” (Georgia State University Research Foundation, Inc., priority 2014, published 2019).

What was measured:
P. destructans conidia = experiment: VOC exposure assay with P. destructans conidia in a contained airspace; as to anti-P. destructans activity, growth from conidia: key: +: growth from spores; −: no visible growth; type: cell-based, Pseudogymnoascus destructans; conditions: for inhibitory activity on conidia: 11 days of exposure; for anti-P. destructans activity against conidia / inhibition of conidia with activated carbon: 30 μl; for anti-P. destructans activity against conidia: closed system; for inhibition of conidia with activated carbon: control plates containing 1 g activated carbon
From the text: (§1) Volatile organic compounds previously shown to be produced by bacteria [Chuankun X, et al. Soil Biol Biochem. 2004 36:1997-2004; Fernando W G D, et al. Soil Biol Biochem. 2005 37:955-64] were screened for anti-P. destructans activity via VOC exposure to spores and mycelial plugs. The VOCs included: decanal; 2-ethyl-1-hexanol; nonanal; benzothiazole; benzaldehyde; and N,N-dimethyloctylamine (Sigma-Aldrich, Missouri). All VOCs were chosen based on their identification in fungistatic soils and their observed production in bacteria [Chuankun X, et al. Soil Biol Biochem. 2004 36:1997-2004; Fernando W G D, et al. Soil Biol Biochem. 2005 37:955-64]. All VOCs purchased as pure, liquid, research grade reagents and used directly, without modification, in all subsequent assays. A single-compartment Petri plate (150 mm×15 mm) was used for a contained airspace to assess P. destructans growth characteristics in the presence of fungistatic VOCs. Ten microliters of P. destructans conidia suspension (10^6 conidia ml^−1 in PBS) was spread onto SDA plates (35 mm×10 mm). Aliquots of 30, 3.0, or 0.3 μl of each VOC corresponding to maximum possible relative concentrations ranging from 113 ppm (v/v) to 1.13 ppm (v/v) were pipetted onto a sterile filter paper disk (12.7 mm) on a watch glass (75 mm). Each VOC containing disk and watch glass was placed inside a large Petri plate (150 mm 9 15 mm) along with a P. destructans-inoculated SDA plate (35 mm×10 mm) (FIG. 6). P. destructans mycelial plugs cut from the leading edge of actively growing colonies were inserted into fresh SDA plates (35 mm×10 mm) and placed in large Petri plates (150 mm×15 mm) with each formulation or pure VOC containing paper disk and sealed with parafilm M (Sigma-Aldrich, Missouri). […] Unexposed cultures and the addition of activated carbon to exposure assays served as negative controls for each trial. Anti-P. destructans activity was scored on a plus/minus scale for conidia-inoculated plates, and the radial growth from mycelial plugs was used to determine percent inhibition by comparing growth area of VOC exposed plugs to unexposed controls. All assays were performed in triplicate and averaged.

[1] = system: P. destructans mycelial plugs; experiment: VOC exposure assay with P. destructans mycelial plugs, radial growth area; type: cell-based, Pseudogymnoascus destructans; conditions: for inhibition of radial mycelial growth: 3 μl, up to 14 days
From the text: as §1
Filamentous fungi grow by hyphae elongation and not by distinct cellular division. Accordingly, measuring the difference between the area growth of control agent-exposed mycelial plugs and control plugs has been a vetted method for assessing antimicrobial susceptibility [Fernando W G D, et al. Soil Biol Biochem. 2005 37:955-64; Liu W, et al. Curr Res Bacteriol. 2008 1:128-34; Strobel G A, et al. Microbiology. 2007 153:2613-20]. The use of a ruler to measure the area of mycelial growth of filamentous fungi has its own challenges. Mycelial plugs will often grow asymmetrically, either naturally or because of exposure to the compound being tested. To provide more accurate measurement of mycelial growth, a digital photography and analysis technique was developed.
The GIMP (GNU Image Manipulation Program) is open-source, freely distributed software for image editing and authoring, compatible with GNU/Linux, Microsoft Windows, Mac OS X, Sun OpenSolaris, and FreeBSD operating systems. This software allows for the direct measurement of the number of pixels in a given selected area of a photograph. GIMP version 2.8.2 for Microsoft Windows was used at the time of this writing. A Nikon D3100 digital single lens reflex camera with an 18-55 mm lens was used to capture images. A standard three-leg tripod was used for support during capture.
The camera was attached to the tripod and aimed down to a surface to provide a consistent distance from the lens to the mycelial surface being photographed; ensuring the same pixel to millimeter ratio was retained for all acquired images. Images of mycelial plugs had their corresponding image numbers catalogued for later identification. […]

[2] = 3 μl VOC, 7 day exposure, incubated with activated carbon
[3] = 3 μl VOC, 10 day exposure, incubated with activated carbon
[4] = 30 μl VOC, incubated with activated carbon, 15° C.

SMILES | anti-P. destructans activity, growth from conidia (P. destructans conidia; 3 μl VOC, 7 day exposure) | anti-P. destructans activity, growth from conidia (P. destructans conidia; [2]) | anti-P. destructans activity, growth from conidia (P. destructans conidia; 3 μl VOC, 10 day exposure) | anti-P. destructans activity, growth from conidia (P. destructans conidia; [3]) | inhibitory activity on conidia (P. destructans conidia; 3 μl) | anti-P. destructans activity, growth from conidia (P. destructans conidia; 30 μl VOC, 15° C.) | anti-P. destructans activity, growth from conidia (P. destructans conidia; [4]) | anti-P. destructans activity against conidia (P. destructans conidia; 15° C.) | inhibition of conidia with activated carbon (P. destructans conidia) | colony morphology of cultures from conidia (P. destructans conidia; 3 μl, without activated carbon) | reduction in radial growth ([1]; 0.3 μl, 15° C., 14 days of exposure) | reduction in growth area ([1]; 0.3 μl, 4° C., 35 days post-inoculation) | inhibition of radial mycelial growth ([1]; 15° C.) | reduction in growth as compared to unexposed controls ([1]; 30 μl, 15° C., 14 days of exposure) | inhibition of growth from conidia (P. destructans conidia; 3 μl, 7 days) | effect on radial growth as compared to unexposed controls ([1]; 0.3 μl, 15° C.)
CCCCC(CC)CO (stereo not drawn) [2-ethyl-1-hexanol] | − | + | − | + | demonstrated inhibitory activity | − | + | demonstrated anti-P. destructans activity | no inhibition |  |  |  |  |  |  | 
O=Cc1ccccc1 [Benzaldehyde, benzaldehyde] | − | + | + | + |  | − | + | demonstrated anti-P. destructans activity | no inhibition |  |  |  |  |  |  | 
c1ccc2scnc2c1 [Benzothiazole, benzothiazole] | − | + | + | + |  | − | − | demonstrated anti-P. destructans activity |  | unique colony morphology characterized by increased pigmentation of the underside of the culture and diffusion of pigment into the growth media | 60% |  |  |  |  | 
CCCCCCCCCC=O [Decanal, decanal] | − | + | − | + | demonstrated inhibitory activity | − | + | demonstrated anti-P. destructans activity | no inhibition |  |  | greater than 99% | only minor reductions in radial growth | 83% |  | 
CCCCCCCCN(C)C [N,N-dimethyloctylamine] | + | + | + | + |  | − | − | demonstrated anti-P. destructans activity |  |  |  |  | only minor reductions in radial growth |  | unable to completely inhibit | induced growth
CCCCCCCCC=O [Nonanal, nonanal] | − | + | − | + | demonstrated inhibitory activity | − | − | demonstrated anti-P. destructans activity |  |  |  |  |  |  |  | 
CSSSC [dimethyltrisulfide] |  |  |  |  |  |  |  | demonstrated anti-P. destructans activity |  |  |  |  |  |  |  | 
